For this test, the system named is Plasmodium berghei. Kind of test: Luciferase/luciferin-expressing antifolate-resistant parasites were used to infect a culture of HepG2 cells that were pre-incubated with compounds. Infected hepatocytes emit light due to the luciferase reaction. Assay results are presented as the percent inhibition of light emission compared to control. […]. The following applies: sporozoite; for IC90: read-out: LUCIFERASE INFECTION ASSAY - IC90. The class given is functional.

One may read the IC50 as the concentration needed to halve the response being measured. Usually IC90 stands for the concentration at which the effect reaches the 90% level. Turning to `C=CCN(CC(=O)NC1CCS(=O)(=O)C1)S(=O)(=O)c1ccccc1C(F)(F)F` (stereo unspecified), the IC90 is > 10 µM. Also, for the setting “FFLUC_HILL_SLOPE 0.888, FFLUC_R_SQUARED 0.174, read-out: LUCIFERASE INFECTION ASSAY - IC50”, the IC50 was > 10000 nM.
In the case of `CCc1cc(C(=O)Nc2ncccc2O)sc1C`, the IC90 was > 10 µM. The IC50 (FFLUC_HILL_SLOPE 0.955, FFLUC_R_SQUARED 0.833, PBLUC_HILL_SLOPE 2.67, PBLUC_R_SQUARED 0.448, read-out: LUCIFERASE INFECTION ASSAY - IC50) worked out at 4950 nM.
Regarding `Cc1ccc(NC(=O)Cc2csc(NC(=O)C3CC3)n2)cc1Cl`, the IC90 is > 10 µM. Also, the IC50 (FFLUC_HILL_SLOPE 0.917, FFLUC_R_SQUARED 0.0768, HEPG2TOX_HILL_SLOPE 0.677, HEPG2TOX_R_SQUARED 0.444, PBLUC_HILL_SLOPE 1.82, PBLUC_R_SQUARED 0.301, read-out: LUCIFERASE INFECTION ASSAY - IC50) was > 10000 nM.
With `CC1CCc2c(sc3c2C(=O)NC(/C(Br)=C/c2ccccc2)N3)C1` (stereo unspecified), the IC90 was 3.94 µM. Besides, the half-inhibitory concentration (IC50) (FFLUC_HILL_SLOPE 0.906, FFLUC_R_SQUARED 0.617, HEPG2TOX_HILL_SLOPE 7.13, HEPG2TOX_R_SQUARED 0.573, PBLUC_HILL_SLOPE 13.5, PBLUC_R_SQUARED 0.659, read-out: LUCIFERASE INFECTION ASSAY - IC50) amounted to 3350 nM.
Regarding `CC(C)(c1ccc(Oc2ccc(NC(=O)C3CC3(C)C)cc2)cc1)c1ccc(Oc2ccc(NC(=O)C3CC3(C)C)cc2)cc1` (stereo unspecified), the IC90 is > 5.47 µM. Besides, the half-inhibitory concentration (IC50) (FFLUC_HILL_SLOPE 0.986, FFLUC_R_SQUARED 0.483, PBLUC_HILL_SLOPE 0.525, PBLUC_R_SQUARED 0.295, read-out: LUCIFERASE INFECTION ASSAY - IC50) was 2360 nM.
Take `Cc1cc(NC(C)C)n2ncc(-c3ccc(F)cc3)c2n1`: the IC90 was 5.57 µM. Further, for the setting “FFLUC_HILL_SLOPE 0.941, FFLUC_R_SQUARED 0.965, HEPG2TOX_HILL_SLOPE 0.182, HEPG2TOX_R_SQUARED 0.624, PBLUC_HILL_SLOPE 0.618, PBLUC_R_SQUARED 0.897, read-out: LUCIFERASE INFECTION ASSAY - IC50”, the IC50 was determined as 160 nM.
As for `CCCn1c(C)cc(C(=O)COC(=O)C2=COCCO2)c1C`, the IC90 was > 10 µM. Besides, the IC50 (FFLUC_HILL_SLOPE 0.919, FFLUC_R_SQUARED 0.757, PBLUC_HILL_SLOPE 0.614, PBLUC_R_SQUARED 0.12, read-out: LUCIFERASE INFECTION ASSAY - IC50) was 839 nM.
Regarding `Cc1ccc2nc(-c3ccc(N(C)C)cc3)[nH]c2c1`, the IC90 was 5.96 µM. Also, for the setting “FFLUC_HILL_SLOPE 0.944, FFLUC_R_SQUARED 0.925, PBLUC_HILL_SLOPE 0.907, PBLUC_R_SQUARED 0.785, read-out: LUCIFERASE INFECTION ASSAY - IC50”, the IC50 turned out to be 530 nM.
As to `O=S(=O)(c1ccc(Cl)s1)N1CCC(C(c2ccccc2)c2ccccc2)CC1`, the IC90 was > 7.64 µM. In addition, where the note is “FFLUC_HILL_SLOPE 0.891, FFLUC_R_SQUARED 0.199, PBLUC_HILL_SLOPE 11.4, PBLUC_R_SQUARED 0.0957, read-out: LUCIFERASE INFECTION ASSAY - IC50”, the IC50 is > 7640 nM.
Regarding `CCCCCN1C(=O)/C(=N\n2c(-c3ccc(Cl)c(Cl)c3)cs/c2=N\c2cccc(C)c2C)c2ccccc21`, the IC90 is > 10 µM. Besides, where the note is “FFLUC_HILL_SLOPE 0.963, FFLUC_R_SQUARED 0.82, HEPG2TOX_HILL_SLOPE 0.0725, HEPG2TOX_R_SQUARED 0.0443, PBLUC_HILL_SLOPE 3.87, PBLUC_R_SQUARED 0.467, read-out: LUCIFERASE INFECTION ASSAY - IC50”, the IC50 came out at 6020 nM.
`Cc1sc2ncn(/N=C/c3ccc(N(c4ccccc4)c4ccccc4)cc3)c(=O)c2c1C`: the IC90 is 4.02 µM. The IC50 (FFLUC_HILL_SLOPE 0.996, FFLUC_R_SQUARED 0.715, HEPG2TOX_HILL_SLOPE 1.1, HEPG2TOX_R_SQUARED 0.992, PBLUC_HILL_SLOPE 2.81, PBLUC_R_SQUARED 0.433, read-out: LUCIFERASE INFECTION ASSAY - IC50) was 1840 nM.
On to `CC(C)CN(C(=O)c1ccc(N2CCCC2)c([N+](=O)[O-])c1)c1nc2ccccc2s1`, for which the IC90 was 0.595 µM. The half-maximal inhibitory concentration (IC50) (FFLUC_HILL_SLOPE 0.859, FFLUC_R_SQUARED 0.184, HEPG2TOX_HILL_SLOPE 0.259, HEPG2TOX_R_SQUARED 0.321, PBLUC_HILL_SLOPE 3.83, PBLUC_R_SQUARED 0.838, read-out: LUCIFERASE INFECTION ASSAY - IC50) was 336 nM.
`CCN(CC)S(=O)(=O)c1cccc(NC(=O)c2sc(Nc3ccc(C)cc3C)c(C(=O)NC(C)COC)c2N)c1` (stereo unspecified): the IC90 is > 10 µM. In addition, the IC50 (FFLUC_HILL_SLOPE 0.973, FFLUC_R_SQUARED 0.376, read-out: LUCIFERASE INFECTION ASSAY - IC50) was > 10000 nM.
With `CO/N=C1\CC(C)(C)Cc2c(-c3ccn(S(=O)(=O)c4ccc(Cl)cc4)n3)sc(SC)c21`, the IC90 is > 6.65 µM. Also, the IC50 (FFLUC_HILL_SLOPE 0.891, FFLUC_R_SQUARED 0.151, read-out: LUCIFERASE INFECTION ASSAY - IC50) is > 6650 nM.
In the case of `CCCCNC(=O)c1c(NC(=O)c2ccc(Cl)cc2Cl)nc2ccc(C)cn12`, the IC90 worked out at 1.73 µM. Also, the IC50 (FFLUC_HILL_SLOPE 0.85, FFLUC_R_SQUARED 0.0513, HEPG2TOX_HILL_SLOPE 0.9, HEPG2TOX_R_SQUARED 0.94, PBLUC_HILL_SLOPE 2.97, PBLUC_R_SQUARED 0.791, read-out: LUCIFERASE INFECTION ASSAY - IC50) was found to be 826 nM.
With `COc1cc(-c2cc(NCc3cccc(C(F)(F)F)c3)ncn2)cc(OC)c1OC`, the IC90 was > 7.87 µM. Besides, for the setting “FFLUC_HILL_SLOPE 0.883, FFLUC_R_SQUARED 0.362, PBLUC_HILL_SLOPE 0.944, PBLUC_R_SQUARED 0.459, read-out: LUCIFERASE INFECTION ASSAY - IC50”, the IC50 is 859 nM.
As to `Cc1ccccc1-n1c(SCc2nc3ccccc3c(=O)n2CC#N)nnc1-c1ccc(C(C)(C)C)cc1`, the IC90 was > 10 µM. Moreover, the IC50 (FFLUC_HILL_SLOPE 0.956, FFLUC_R_SQUARED 0.529, read-out: LUCIFERASE INFECTION ASSAY - IC50) was > 10000 nM.
On to `COc1ccc2c(c1)C(=O)C(=O)N2Cc1ccccc1Cl`, for which the IC90 was > 10.9 µM. Moreover, where the note is “FFLUC_HILL_SLOPE 0.896, FFLUC_R_SQUARED 0.182, read-out: LUCIFERASE INFECTION ASSAY - IC50”, the IC50 is > 10900 nM.
Turning to `Cc1c(S(=O)(=O)c2ccc(Cl)cc2)csc1C(=O)Nc1ccccc1Cl`, the IC90 is > 7.74 µM. The IC50 (FFLUC_HILL_SLOPE 0.988, FFLUC_R_SQUARED 0.0286, PBLUC_HILL_SLOPE 1.65, PBLUC_R_SQUARED 0.324, read-out: LUCIFERASE INFECTION ASSAY - IC50) was 6990 nM.
As to `O=C(Nc1ccccc1)c1ccc(CN2CCC(O)CC2)cc1`, the IC90 was > 10 µM. Besides, the IC50 (FFLUC_HILL_SLOPE 0.964, FFLUC_R_SQUARED 0.857, PBLUC_HILL_SLOPE 0.791, PBLUC_R_SQUARED 0.696, read-out: LUCIFERASE INFECTION ASSAY - IC50) was found to be 1040 nM.
As to `Cc1ccc(-n2nc(-c3ccc(OC(F)(F)F)cc3)cc2NC(=O)Nc2ccc(OC(F)(F)F)cc2)cc1C`, the concentration for an effect of 90% (IC90) was > 6 µM. Also, the IC50 (FFLUC_HILL_SLOPE 0.93, FFLUC_R_SQUARED 0.122, PBLUC_HILL_SLOPE 17.9, PBLUC_R_SQUARED 0.245, read-out: LUCIFERASE INFECTION ASSAY - IC50) stood at 5990 nM.
In the case of `O=C(Nc1ccccc1)c1cc(Nc2ccc(O)cc2)ncn1`, the IC90 is > 10.8 µM. Also, the IC50 (FFLUC_HILL_SLOPE 0.974, FFLUC_R_SQUARED 0.921, PBLUC_HILL_SLOPE 1.57, PBLUC_R_SQUARED 0.726, read-out: LUCIFERASE INFECTION ASSAY - IC50) came out at 5200 nM.
`O=[N+]([O-])c1cnc(Sc2nnc(SCc3cccc(C(F)(F)F)c3)s2)s1`: the IC90 was > 7.56 µM. In addition, the IC50 (FFLUC_HILL_SLOPE 0.915, FFLUC_R_SQUARED 0.422, read-out: LUCIFERASE INFECTION ASSAY - IC50) was > 7560 nM.
In the case of `O=[N+]([O-])c1ccc2c(c1)S(=O)(=O)CC2Sc1cccs1` (stereo unspecified), the IC90 is > 10.1 µM. Moreover, the IC50 (FFLUC_HILL_SLOPE 0.919, FFLUC_R_SQUARED 0.527, PBLUC_HILL_SLOPE 1.82, PBLUC_R_SQUARED 0.11, read-out: LUCIFERASE INFECTION ASSAY - IC50) was > 10100 nM.
On to `N#C/C(=C\Nc1cc(C(F)(F)F)cc(C(F)(F)F)c1)S(=O)(=O)c1ccccc1`, for which the IC90 was > 7.85 µM. Where the note is “FFLUC_HILL_SLOPE 0.883, FFLUC_R_SQUARED 0.592, HEPG2TOX_HILL_SLOPE 1.61, HEPG2TOX_R_SQUARED 0.979, PBLUC_HILL_SLOPE 2.79, PBLUC_R_SQUARED 0.181, read-out: LUCIFERASE INFECTION ASSAY - IC50”, the IC50 was determined as 4350 nM.
Regarding `COc1ccnc(Nc2ccc3c(c2)nc2n3CCCCC2)n1`, the concentration for an effect of 90% (IC90) amounted to 2.84 µM. In addition, the IC50 (FFLUC_HILL_SLOPE 0.925, FFLUC_R_SQUARED 0.902, HEPG2TOX_HILL_SLOPE 18.6, HEPG2TOX_R_SQUARED 0.895, PBLUC_HILL_SLOPE 0.753, PBLUC_R_SQUARED 0.781, read-out: LUCIFERASE INFECTION ASSAY - IC50) was 154 nM.
In the case of `CSc1ccc(C2=NNC(=NC3CC3)SC2)cc1`, the IC90 was > 10 µM. Further, the IC50 (FFLUC_HILL_SLOPE 0.857, FFLUC_R_SQUARED 0.948, PBLUC_HILL_SLOPE 0.604, PBLUC_R_SQUARED 0.771, read-out: LUCIFERASE INFECTION ASSAY - IC50) amounted to 467 nM.
As to `Cc1oc2[nH]cnc(=O)c2c1C(=O)Nc1ccccc1Cc1ccccc1`, the IC90 is > 10 µM. Where the note is “FFLUC_HILL_SLOPE 0.892, FFLUC_R_SQUARED 0.572, PBLUC_HILL_SLOPE 0.52, PBLUC_R_SQUARED 0.732, read-out: LUCIFERASE INFECTION ASSAY - IC50”, the half-maximal inhibitory concentration (IC50) stood at 2730 nM.

The record behind these values is ChEMBL document CHEMBL4483862, “Open-source discovery of chemical leads for next-generation chemoprotective antimalarials” (2018).
